Assay results reported in ChEMBL document CHEMBL4507293 (2021).

How the values were obtained:
[1] = molecular target: Macrophage-stimulating protein receptor (Homo sapiens) (UniProt Q04912); details: Compound concentration 100.0 nM
[2] = molecular target: Ribosomal protein S6 kinase alpha-5 (Homo sapiens) (UniProt O75582); details: Compound concentration 100.0 nM
[3] = test system: Serine/threonine-protein kinase B-raf (Homo sapiens), P15056 [V600E]; details: Compound concentration 100.0 nM
[4] = molecular target: TGF-beta receptor type-1 (Homo sapiens) (UniProt P36897); details: Compound concentration 100.0 nM
Sequence of TGF-beta receptor type-1 (Homo sapiens) (P36897 whole entry): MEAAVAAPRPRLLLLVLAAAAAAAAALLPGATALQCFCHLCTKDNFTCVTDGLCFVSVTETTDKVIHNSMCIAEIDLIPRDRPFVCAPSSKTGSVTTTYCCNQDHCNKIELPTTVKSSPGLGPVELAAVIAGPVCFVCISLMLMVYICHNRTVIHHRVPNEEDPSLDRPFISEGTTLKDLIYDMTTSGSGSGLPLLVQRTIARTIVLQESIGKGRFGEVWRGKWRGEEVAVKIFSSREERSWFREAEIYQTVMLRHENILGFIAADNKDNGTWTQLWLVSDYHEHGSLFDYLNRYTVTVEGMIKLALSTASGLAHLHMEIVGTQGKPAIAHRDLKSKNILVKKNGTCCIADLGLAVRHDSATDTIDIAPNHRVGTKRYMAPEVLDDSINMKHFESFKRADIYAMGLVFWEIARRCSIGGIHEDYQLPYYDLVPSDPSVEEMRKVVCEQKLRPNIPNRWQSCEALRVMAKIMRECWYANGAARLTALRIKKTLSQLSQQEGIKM

[5] = test system: Mast/stem cell growth factor receptor Kit (Homo sapiens), P10721 [D816H]; details: Compound concentration 100.0 nM
Sequence of Mast/stem cell growth factor receptor Kit (Homo sapiens), P10721 [D816H] (P10721 whole entry D816H): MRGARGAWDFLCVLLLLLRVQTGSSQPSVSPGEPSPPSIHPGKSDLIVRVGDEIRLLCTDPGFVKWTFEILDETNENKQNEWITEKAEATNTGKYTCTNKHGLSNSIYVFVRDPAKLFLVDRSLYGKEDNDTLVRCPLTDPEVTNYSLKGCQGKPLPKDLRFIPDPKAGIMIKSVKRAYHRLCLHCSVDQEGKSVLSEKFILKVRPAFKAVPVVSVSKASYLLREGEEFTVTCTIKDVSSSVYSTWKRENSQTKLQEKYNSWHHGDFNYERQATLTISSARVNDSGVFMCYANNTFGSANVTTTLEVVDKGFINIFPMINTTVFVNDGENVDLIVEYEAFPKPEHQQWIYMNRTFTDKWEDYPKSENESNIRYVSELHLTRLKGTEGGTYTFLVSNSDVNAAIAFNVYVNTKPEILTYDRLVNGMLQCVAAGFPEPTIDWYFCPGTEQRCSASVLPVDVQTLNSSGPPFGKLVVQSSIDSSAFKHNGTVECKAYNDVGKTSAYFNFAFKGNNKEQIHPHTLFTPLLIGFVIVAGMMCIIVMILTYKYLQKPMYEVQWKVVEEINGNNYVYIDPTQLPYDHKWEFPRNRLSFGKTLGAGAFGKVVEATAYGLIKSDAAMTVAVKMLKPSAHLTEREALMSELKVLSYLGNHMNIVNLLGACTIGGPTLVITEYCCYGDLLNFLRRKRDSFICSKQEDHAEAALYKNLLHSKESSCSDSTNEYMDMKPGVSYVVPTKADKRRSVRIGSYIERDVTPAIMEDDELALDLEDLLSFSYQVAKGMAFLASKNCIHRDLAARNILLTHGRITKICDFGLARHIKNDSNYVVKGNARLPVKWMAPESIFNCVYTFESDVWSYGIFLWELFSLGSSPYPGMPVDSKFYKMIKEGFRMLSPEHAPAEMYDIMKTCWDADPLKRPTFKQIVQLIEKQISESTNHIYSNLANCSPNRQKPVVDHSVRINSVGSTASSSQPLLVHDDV

[6] = molecular target: Serine/threonine-protein kinase Sgk3 (Homo sapiens) (UniProt Q96BR1); details: Compound concentration 100.0 nM
[7] = molecular target: ALK tyrosine kinase receptor (Homo sapiens) (UniProt Q9UM73); details: Compound concentration 100.0 nM
[8] = molecular target: Inhibitor of nuclear factor kappa-B kinase subunit beta (Homo sapiens) (UniProt O14920); details: Compound concentration 100.0 nM
[9] = molecular target: Ribosomal protein S6 kinase alpha-4 (Homo sapiens) (UniProt O75676); details: Compound concentration 100.0 nM
[10] = molecular target: Ephrin type-A receptor 7 (Homo sapiens) (UniProt Q15375); details: Compound concentration 100.0 nM
[11] = molecular target: Beta-adrenergic receptor kinase 1 (Homo sapiens) (UniProt P25098); details: Compound concentration 100.0 nM
[12] = molecular target: Serine/threonine-protein kinase RIO3 (Homo sapiens) (UniProt O14730); details: Compound concentration 100.0 nM
[13] = molecular target: Serine/threonine-protein kinase TAO1 (Homo sapiens) (UniProt Q7L7X3); details: Compound concentration 100.0 nM
Sequence of Serine/threonine-protein kinase TAO1 (Homo sapiens) (Q7L7X3 whole entry): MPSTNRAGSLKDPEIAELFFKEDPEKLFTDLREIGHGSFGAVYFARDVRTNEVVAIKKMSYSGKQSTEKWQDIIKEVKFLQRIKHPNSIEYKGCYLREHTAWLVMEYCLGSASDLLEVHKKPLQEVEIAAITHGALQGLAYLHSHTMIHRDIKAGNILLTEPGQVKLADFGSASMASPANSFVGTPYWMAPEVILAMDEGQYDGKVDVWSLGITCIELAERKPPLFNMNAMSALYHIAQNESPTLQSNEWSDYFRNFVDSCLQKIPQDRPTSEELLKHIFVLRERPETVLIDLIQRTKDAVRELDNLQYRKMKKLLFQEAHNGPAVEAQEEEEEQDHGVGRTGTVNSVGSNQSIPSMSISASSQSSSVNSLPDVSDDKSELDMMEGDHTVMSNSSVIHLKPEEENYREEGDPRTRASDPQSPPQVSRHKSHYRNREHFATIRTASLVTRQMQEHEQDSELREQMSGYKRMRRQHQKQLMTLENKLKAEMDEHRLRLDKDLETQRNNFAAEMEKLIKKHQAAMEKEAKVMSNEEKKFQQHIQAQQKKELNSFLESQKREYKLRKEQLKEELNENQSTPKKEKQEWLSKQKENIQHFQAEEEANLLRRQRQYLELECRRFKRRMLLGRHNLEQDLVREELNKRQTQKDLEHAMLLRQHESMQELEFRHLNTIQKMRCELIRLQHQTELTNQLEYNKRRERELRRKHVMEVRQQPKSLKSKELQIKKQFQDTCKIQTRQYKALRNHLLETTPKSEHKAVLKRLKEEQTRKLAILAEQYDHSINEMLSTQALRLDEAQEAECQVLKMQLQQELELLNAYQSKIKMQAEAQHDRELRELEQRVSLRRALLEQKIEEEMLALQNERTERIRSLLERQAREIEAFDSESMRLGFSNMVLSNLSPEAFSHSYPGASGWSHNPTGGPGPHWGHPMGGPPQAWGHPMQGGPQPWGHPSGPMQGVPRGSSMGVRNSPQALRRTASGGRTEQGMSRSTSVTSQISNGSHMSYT

[14] = molecular target: Serine/threonine-protein kinase Sgk1 (Homo sapiens) (UniProt O00141); details: Compound concentration 100.0 nM
Sequence of Serine/threonine-protein kinase Sgk1 (Homo sapiens) (O00141 whole entry): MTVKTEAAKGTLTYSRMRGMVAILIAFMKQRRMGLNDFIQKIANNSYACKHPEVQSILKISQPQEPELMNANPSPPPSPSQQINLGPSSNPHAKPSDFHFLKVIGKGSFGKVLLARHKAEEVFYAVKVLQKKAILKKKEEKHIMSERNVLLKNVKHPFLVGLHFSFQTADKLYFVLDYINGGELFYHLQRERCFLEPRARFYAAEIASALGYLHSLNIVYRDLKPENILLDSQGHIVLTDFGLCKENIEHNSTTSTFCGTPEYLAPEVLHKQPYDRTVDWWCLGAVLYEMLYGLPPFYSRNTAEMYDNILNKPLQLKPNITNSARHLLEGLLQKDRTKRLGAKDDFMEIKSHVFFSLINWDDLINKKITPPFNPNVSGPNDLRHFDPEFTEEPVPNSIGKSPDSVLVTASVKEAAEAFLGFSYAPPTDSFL

[15] = molecular target: Serine/threonine-protein kinase PRP4 homolog (Homo sapiens) (UniProt Q13523); details: Compound concentration 100.0 nM
Sequence of Serine/threonine-protein kinase PRP4 homolog (Homo sapiens) (Q13523 whole entry): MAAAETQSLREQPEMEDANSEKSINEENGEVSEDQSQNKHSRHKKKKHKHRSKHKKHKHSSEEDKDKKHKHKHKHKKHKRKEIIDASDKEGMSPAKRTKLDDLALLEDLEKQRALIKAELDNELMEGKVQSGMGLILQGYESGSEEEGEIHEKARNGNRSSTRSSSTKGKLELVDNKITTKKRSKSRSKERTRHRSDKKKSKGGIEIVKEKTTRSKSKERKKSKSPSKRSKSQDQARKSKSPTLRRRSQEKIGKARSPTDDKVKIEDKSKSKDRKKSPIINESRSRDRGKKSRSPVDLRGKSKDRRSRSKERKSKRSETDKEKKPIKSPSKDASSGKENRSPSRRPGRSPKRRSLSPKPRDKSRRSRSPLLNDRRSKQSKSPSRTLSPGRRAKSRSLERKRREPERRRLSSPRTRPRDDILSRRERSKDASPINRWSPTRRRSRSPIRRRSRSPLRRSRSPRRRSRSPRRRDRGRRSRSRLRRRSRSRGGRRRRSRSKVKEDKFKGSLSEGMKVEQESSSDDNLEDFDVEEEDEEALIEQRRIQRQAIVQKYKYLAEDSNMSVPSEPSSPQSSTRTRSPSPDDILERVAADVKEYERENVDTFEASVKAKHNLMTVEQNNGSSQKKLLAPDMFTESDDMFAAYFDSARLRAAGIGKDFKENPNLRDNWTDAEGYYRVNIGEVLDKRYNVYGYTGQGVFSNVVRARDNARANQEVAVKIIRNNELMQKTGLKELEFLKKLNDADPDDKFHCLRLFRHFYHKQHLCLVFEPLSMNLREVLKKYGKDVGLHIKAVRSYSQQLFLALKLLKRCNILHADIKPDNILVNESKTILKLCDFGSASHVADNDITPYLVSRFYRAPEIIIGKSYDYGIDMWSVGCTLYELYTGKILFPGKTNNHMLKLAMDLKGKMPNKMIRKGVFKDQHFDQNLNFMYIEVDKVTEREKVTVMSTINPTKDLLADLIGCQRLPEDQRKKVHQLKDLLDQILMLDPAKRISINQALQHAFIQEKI

[16] = molecular target: RAF proto-oncogene serine/threonine-protein kinase (Homo sapiens) (UniProt P04049); details: Compound concentration 100.0 nM
[17] = molecular target: Histamine H1 receptor (Homo sapiens) (UniProt P35367); details: Compound concentration 10.0 uM
[18] = molecular target: Interleukin-1 receptor-associated kinase 4 (Homo sapiens) (UniProt Q9NWZ3); details: Compound concentration 100.0 nM
[19] = molecular target: T1, 5-hydroxytryptamine receptor 2C (Homo sapiens) (UniProt P28335); details: Compound concentration 10.0 uM
T1 sequence (whole entry): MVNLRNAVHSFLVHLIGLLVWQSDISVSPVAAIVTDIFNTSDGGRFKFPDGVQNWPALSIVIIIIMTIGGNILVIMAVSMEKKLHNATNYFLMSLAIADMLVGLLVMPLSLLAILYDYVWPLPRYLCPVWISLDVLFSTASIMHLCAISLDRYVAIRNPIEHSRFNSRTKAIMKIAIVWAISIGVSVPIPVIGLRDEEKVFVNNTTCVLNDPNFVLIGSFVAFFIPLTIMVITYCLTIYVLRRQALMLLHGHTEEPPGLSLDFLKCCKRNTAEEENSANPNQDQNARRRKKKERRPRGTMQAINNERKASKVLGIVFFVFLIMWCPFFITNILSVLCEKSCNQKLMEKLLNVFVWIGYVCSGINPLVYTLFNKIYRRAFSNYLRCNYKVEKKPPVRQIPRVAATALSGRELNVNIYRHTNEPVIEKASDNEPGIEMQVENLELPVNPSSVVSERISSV

[20] = molecular target: Serine/threonine-protein kinase Nek9 (Homo sapiens) (UniProt Q8TD19); details: Compound concentration 100.0 nM
[21] = molecular target: Wee1-like protein kinase 2 (Homo sapiens) (UniProt P0C1S8); details: Compound concentration 100.0 nM
[22] = molecular target: Serine/threonine-protein kinase TAO2 (Homo sapiens) (UniProt Q9UL54); details: Compound concentration 100.0 nM
[23] = test system: Epidermal growth factor receptor (Homo sapiens), P00533 [G719C]; details: Compound concentration 100.0 nM
[24] = molecular target: Sigma intracellular receptor 2 (Homo sapiens, UniProt Q5BJF2); details: Compound concentration 10.0 uM
[25] = molecular target: Phosphorylase b kinase regulatory subunit alpha, liver isoform (Homo sapiens) (UniProt P46019); details: Compound concentration 100.0 nM
[26] = molecular target: Rho-associated protein kinase 2 (Homo sapiens) (UniProt O75116); details: Compound concentration 100.0 nM
[27] = molecular target: MAP/microtubule affinity-regulating kinase 3 (Homo sapiens) (UniProt P27448); details: Compound concentration 100.0 nM
[28] = molecular target: Dual specificity testis-specific protein kinase 1 (Homo sapiens) (UniProt Q15569); details: Compound concentration 100.0 nM
[29] = test system: Phosphatidylinositol 4,5-bisphosphate 3-kinase catalytic subunit alpha isoform (Homo sapiens), P42336 [I800L]; details: Compound concentration 100.0 nM
[30] = molecular target: MAP kinase-interacting serine/threonine-protein kinase 1 (Homo sapiens) (UniProt Q9BUB5); details: Compound concentration 100.0 nM
[31] = molecular target: LIM domain kinase 1 (Homo sapiens) (UniProt P53667); details: Compound concentration 100.0 nM
[32] = molecular target: Rhodopsin kinase GRK7 (Homo sapiens) (UniProt Q8WTQ7); details: Compound concentration 100.0 nM
[33] = molecular target: Casein kinase I isoform alpha (Homo sapiens) (UniProt P48729); details: Compound concentration 100.0 nM
Sequence of Casein kinase I isoform alpha (Homo sapiens) (P48729 2-337 limits assumed): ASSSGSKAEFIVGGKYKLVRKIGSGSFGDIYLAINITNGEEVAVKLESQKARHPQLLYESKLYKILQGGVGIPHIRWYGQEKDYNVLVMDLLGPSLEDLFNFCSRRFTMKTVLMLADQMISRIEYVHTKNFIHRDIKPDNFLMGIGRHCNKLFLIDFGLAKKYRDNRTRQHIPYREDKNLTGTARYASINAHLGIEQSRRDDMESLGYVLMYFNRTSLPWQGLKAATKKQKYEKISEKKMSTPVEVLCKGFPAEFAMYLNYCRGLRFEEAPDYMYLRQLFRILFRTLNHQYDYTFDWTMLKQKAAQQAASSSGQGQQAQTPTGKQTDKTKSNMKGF

[34] = molecular target: Receptor tyrosine-protein kinase erbB-4 (Homo sapiens) (UniProt Q15303); details: Compound concentration 100.0 nM
[35] = molecular target: Inhibitor of nuclear factor kappa-B kinase subunit alpha (Homo sapiens) (UniProt O15111); details: Compound concentration 100.0 nM
Sequence of Inhibitor of nuclear factor kappa-B kinase subunit alpha (Homo sapiens) (O15111 whole entry): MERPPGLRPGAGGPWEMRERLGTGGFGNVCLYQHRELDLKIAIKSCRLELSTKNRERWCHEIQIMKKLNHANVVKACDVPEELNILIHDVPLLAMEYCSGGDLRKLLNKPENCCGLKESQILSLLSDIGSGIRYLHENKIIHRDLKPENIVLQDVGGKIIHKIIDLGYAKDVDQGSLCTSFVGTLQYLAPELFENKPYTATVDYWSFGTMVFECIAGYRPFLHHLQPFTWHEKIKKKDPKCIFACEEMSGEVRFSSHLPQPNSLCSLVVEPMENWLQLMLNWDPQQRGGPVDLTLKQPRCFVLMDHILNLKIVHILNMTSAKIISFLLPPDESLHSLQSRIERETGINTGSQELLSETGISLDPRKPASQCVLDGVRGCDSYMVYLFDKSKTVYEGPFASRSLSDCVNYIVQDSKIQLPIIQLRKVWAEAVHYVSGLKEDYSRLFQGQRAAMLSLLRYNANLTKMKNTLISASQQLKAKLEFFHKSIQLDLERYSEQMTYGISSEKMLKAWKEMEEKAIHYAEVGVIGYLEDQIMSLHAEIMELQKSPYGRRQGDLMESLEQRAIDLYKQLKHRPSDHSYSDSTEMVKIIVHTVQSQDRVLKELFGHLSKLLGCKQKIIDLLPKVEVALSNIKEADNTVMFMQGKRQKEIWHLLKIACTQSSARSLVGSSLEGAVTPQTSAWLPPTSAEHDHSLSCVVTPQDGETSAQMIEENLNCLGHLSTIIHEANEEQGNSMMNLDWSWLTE

[36] = molecular target: Serine/threonine-protein kinase WNK4 (Homo sapiens) (UniProt Q96J92); details: Compound concentration 100.0 nM
[37] = molecular target: Serine/threonine-protein kinase 17B (Homo sapiens) (UniProt O94768); details: Compound concentration 100.0 nM
[38] = molecular target: Serine/threonine-protein kinase PLK1 (Homo sapiens) (UniProt P53350); details: Compound concentration 100.0 nM
[39] = molecular target: Serine/threonine-protein kinase Sgk2 (Homo sapiens) (UniProt Q9HBY8); details: Compound concentration 100.0 nM

SMILES | residual activity [1] [%] | residual activity [2] [%] | residual activity [3] [%] | residual activity [4] [%] | residual activity [5] [%] | residual activity [6] [%] | residual activity [7] [%] | residual activity [8] [%] | residual activity [9] [%] | residual activity [10] [%] | residual activity [11] [%] | residual activity [12] [%] | residual activity [13] [%] | residual activity [14] [%] | residual activity [15] [%] | residual activity [16] [%] | inhibition [17] [%] | residual activity [18] [%] | inhibition [19] [%] | residual activity [20] [%] | also measured
CC(C)CC(=O)N1CCc2nc(-c3ccc(Br)cc3)nc(N(C)Cc3ccccc3)c2C1 [THPP-1-NC] | 100 | 100 | 100 | 100 | 71 | 100 | 91 | 100 | 100 | 99 | 100 | 100 | 100 | 99 | 100 | 100 | 12.6 | 100 | -6.28 | 100 | residual activity [21]: 100%; residual activity [22]: 97%; residual activity [23]: 100%; inhibition [24]: 78.8%; residual activity [25]: 100%; residual activity [26]: 74%; residual activity [27]: 100%; residual activity [28]: 100%; residual activity [29]: 98%; residual activity [30]: 69%; residual activity [31]: 100%; residual activity [32]: 74%; residual activity [33]: 73%; residual activity [34]: 94%; residual activity [35]: 100%; residual activity [36]: 100%; residual activity [37]: 91%; residual activity [38]: 100%; residual activity [39]: 94%
COCCOc1nc(-c2ccc(Cl)nc2)nc2c1CN(C(=O)c1ncn3ccccc13)CC2 [THPP-1] | 100 | 100 | 100 | 100 | 68 | 100 | 91 | 100 | 100 | 100 | 100 | 100 | 100 | 91 | 100 | 97 | 23.9 | 100 | 13.3 | 100 | residual activity [21]: 100%; residual activity [22]: 99%; residual activity [23]: 85%; inhibition [24]: 55.6%; residual activity [25]: 100%; residual activity [26]: 76%; residual activity [27]: 100%; residual activity [28]: 100%; residual activity [29]: 66%; residual activity [30]: 77%; residual activity [31]: 100%; residual activity [32]: 91%; residual activity [33]: 98%; residual activity [34]: 80%; residual activity [35]: 100%; residual activity [36]: 100%; residual activity [37]: 62%; residual activity [38]: 100%; residual activity [39]: 88%
